Measurements as given in US4303785A, “Antitumor anthracycline antibiotics” (priority 1978, dated 1981).
Read-outs that look alike come from different tables or passages of the source.

Tested on: L1210 cells
Assay: animal or person
Type: in vivo, CDF1 mice
Details: for response vs control in vivo at 0.15 mg/kg / response vs control in vivo at 0.31 mg/kg / response vs control in vivo at 0.625 mg/kg / response vs control in vivo at 1.25 mg/kg / response vs control in vivo at 2.5 mg/kg / response vs control in vivo at 5 mg/kg: Mus musculus, L1210, ip, 1080 h; for response vs control in vivo at 1.25 mg/kg: read-out: Antitumor Activity (T/C, prolongation rate of survival day), 1.25 mg/kg/day i.p., once daily for 10 days; for response vs control in vivo at 2.5 mg/kg: read-out: Antitumor Activity (T/C, prolongation rate of survival day), 2.5 mg/kg/day i.p., once daily for 10 days; for response vs control in vivo at 5 mg/kg: read-out: Antitumor Activity (T/C, prolongation rate of survival day), 5 mg/kg/day i.p., once daily for 10 days
Protocol: D. Representative compounds of general formula I" were tested against experimental animal tumors as follows: […]
CDF1 mice were administered intraperitoneally (i.p.) with 1×10^5 cells/mouse of L1210 cells. After 24 hours had elapsed since inoculation, the mice were administered the test compounds intraperitoneally once daily for 10 consecutive days and observed for a 45 day period.
The antitumor activity was shown by the prolongation rate of survival day (T/C, %) to the survival day of control mice injected with physiological saline.

[1] = read-out: Antitumor Activity (T/C, prolongation rate of survival day), 0.15 mg/kg/day i.p., once daily for 10 days
[2] = read-out: Antitumor Activity (T/C, prolongation rate of survival day), 0.31 mg/kg/day i.p., once daily for 10 days
[3] = read-out: Antitumor Activity (T/C, prolongation rate of survival day), 0.625 mg/kg/day i.p., once daily for 10 days
[4] = 0.31 mg/kg/day i.p., once daily for 10 days
[5] = 2.5 mg/kg/day i.p., once daily for 10 days
[6] = 5 mg/kg/day i.p., once daily for 10 days
[7] = 0.15 mg/kg/day i.p., once daily for 10 days
[8] = 0.625 mg/kg/day i.p., once daily for 10 days
[9] = 1.25 mg/kg/day i.p., once daily for 10 days

SMILES	response vs control in vivo at 0.15 mg/kg [1]	response vs control in vivo at 0.31 mg/kg [2]	response vs control in vivo at 0.625 mg/kg [3]	response vs control in vivo at 1.25 mg/kg	response vs control in vivo at 2.5 mg/kg	response vs control in vivo at 5 mg/kg	Antitumor Activity (T/C, prolongation rate of survival day) [4]	Antitumor Activity (T/C, prolongation rate of survival day) [5]	Antitumor Activity (T/C, prolongation rate of survival day) [6]	Antitumor Activity (T/C, prolongation rate of survival day) [7]	Antitumor Activity (T/C, prolongation rate of survival day) [8]	Antitumor Activity (T/C, prolongation rate of survival day) [9]	response vs control in vivo at 0.15 mg/kg (0.15 mg/kg/day i.p., once daily for 10 days, read-out: Antitumor Activity (T/C, prolongation rate of survival day))	response vs control in vivo at 0.31 mg/kg (0.31 mg/kg/day i.p., once daily for 10 days, read-out: Antitumor Activity (T/C, prolongation rate of survival day))	response vs control in vivo at 0.625 mg/kg (0.625 mg/kg/day i.p., once daily for 10 days, read-out: Antitumor Activity (T/C, prolongation rate of survival day))
COc1cccc2c1C(=O)c1c(O)c3c(c(O)c1C2=O)C[C@@](O)(C(=O)CO)C[C@@H]3O[C@H]1C[C@H](N)[C@H](OC2CCCC(COC(C)=O)O2)[C@H](C)O1 (stereo partly shown) [Example 6, 4'-O-(6-acetoxymethyltetrahydropyranyl) adriamycin]	100%	88%	106%	118%	118%	141%									
COc1cccc2c1C(=O)c1c(O)c3c(c(O)c1C2=O)C[C@@](O)(C(=O)COC(C)=O)C[C@@H]3O[C@H]1C[C@H](N)[C@H](OC2CCCCO2)[C@H](C)O1 (single isomer, unassigned) [Example 1-a, 14-O-acetyl-4'-O-tetrahydropyranyl adriamycin a]			195%	228%		225%	203%	239%							
COc1cccc2c1C(=O)c1c(O)c3c(c(O)c1C2=O)C[C@@](O)(C(=O)CO)C[C@@H]3O[C@H]1C[C@H](N)[C@H](OC(C)OCC(C)C)[C@H](C)O1 (single isomer, unassigned) [Example 9-a, 4'-O-(1-isobutyloxyethyl) adriamycin a]	105%	105%	112%	125%	151%				257%						
CCOC(C)O[C@@H]1[C@H](C)O[C@@H](O[C@H]2C[C@](O)(C(C)=O)Cc3c(O)c4c(c(O)c32)C(=O)c2c(OC)cccc2C4=O)C[C@@H]1N (single isomer, unassigned) [Example 16-b, 4'-O-(1-ethyloxyethyl) daunomycin b]							96%	133%	247%	90%	108%	112%			
CCOC(C)O[C@@H]1[C@H](C)O[C@@H](O[C@H]2C[C@](O)(C(=O)CO)Cc3c(O)c4c(c(O)c32)C(=O)c2c(OC)cccc2C4=O)C[C@@H]1N (single isomer, unassigned) [Example 7-a, 4'-O-(1-ethyloxyethyl) adriamycin a]	96%	101%	127%	145%				277%	108%						
CCCCOC(C)O[C@@H]1[C@H](C)O[C@@H](O[C@H]2C[C@](O)(C(=O)CO)Cc3c(O)c4c(c(O)c32)C(=O)c2c(OC)cccc2C4=O)C[C@@H]1N (single isomer, unassigned) [Example 8-b, 4'-O-(1-butyloxyethyl) adriamycin b]							100%	138%	288%	100%	106%	119%			
COc1cccc2c1C(=O)c1c(O)c3c(c(O)c1C2=O)C[C@@](O)(C(=O)CO)C[C@@H]3O[C@H]1C[C@H](N)[C@H](OC(C)OC2CCCCC2)[C@H](C)O1 (single isomer, unassigned) [Example 11-b, 4'-O-(1-cyclohexyloxyethyl) adriamycin b]							105%	125%	145%	105%	105%	105%			
COc1cccc2c1C(=O)c1c(O)c3c(c(O)c1C2=O)C[C@@](O)(C(=O)COC(C)=O)C[C@@H]3O[C@H]1C[C@H](N)[C@H](OC2CCCCO2)[C@H](C)O1 (single isomer, unassigned) [Example 1-b, 14-O-acetyl-4'-O-tetrahydropyranyl adriamycin b]							145%	218%	241%		184%	220%			
COc1cccc2c1C(=O)c1c(O)c3c(c(O)c1C2=O)C[C@@](O)(C(=O)CO)C[C@@H]3O[C@H]1C[C@H](N)[C@H](OC2CCCO2)[C@H](C)O1 (stereo partly shown) [Example 4, 4'-O-tetrahydrofuranyl adriamycin]								360%	314%			179%	105%	111%	136%
COc1cccc2c1C(=O)c1c(O)c3c(c(O)c1C2=O)C[C@@](O)(C(=O)CO)C[C@@H]3O[C@H]1C[C@H](N)[C@H](OC2CCCO2)[C@H](C)O1 (single isomer, unassigned) [Example 5-a, 4'-O-tetrahydrofuranyl adriamycin a]							115%	288%	212%	115%	135%	189%			
COc1cccc2c1C(=O)c1c(O)c3c(c(O)c1C2=O)C[C@@](O)(C(=O)CO)C[C@@H]3O[C@H]1C[C@H](N)[C@H](OC(C)OC2CCCCC2)[C@H](C)O1 (single isomer, unassigned) [Example 11-a, 4'-O-(1-cyclohexyloxyethyl) adriamycin a]	105%	99%	105%	118%	125%				184%						
CCOC(C)O[C@@H]1[C@H](C)O[C@@H](O[C@H]2C[C@](O)(C(=O)CO)Cc3c(O)c4c(c(O)c32)C(=O)c2c(OC)cccc2C4=O)C[C@@H]1N (single isomer, unassigned) [Example 7-b, 4'-O-(1-ethyloxyethyl) adriamycin b]							108%	151%	211%	108%	127%	157%			
COc1cccc2c1C(=O)c1c(O)c3c(c(O)c1C2=O)C[C@@](O)(C(=O)CO)C[C@@H]3O[C@H]1C[C@H](N)[C@H](OC(C)OCCCCCC(C)C)[C@H](C)O1 (single isomer, unassigned) [Example 10-a, 4'-O-(1-(6-methylheptyloxy)ethyl) adriamycin a]	105%	92%	99%	118%	125%	125%									
COc1cccc2c1C(=O)c1c(O)c3c(c(O)c1C2=O)C[C@@](O)(C(C)=O)C[C@@H]3O[C@H]1C[C@H](N)[C@H](OC(C)OCC(C)C)[C@H](C)O1 (single isomer, unassigned) [Example 17-a, 4'-O-(1-isobutyloxyethyl) daunomycin a]	100%	100%	100%	100%	119%				156%						
CCCCOC(C)O[C@@H]1[C@H](C)O[C@@H](O[C@H]2C[C@](O)(C(=O)CO)Cc3c(O)c4c(c(O)c32)C(=O)c2c(OC)cccc2C4=O)C[C@@H]1N (single isomer, unassigned) [Example 8-a, 4'-O-(1-butyloxyethyl) adriamycin a]	100%	100%	119%	125%	138%				163%						
